From patent US9796706B2, “Inhibitors of Jun N-terminal kinase” (IMAGO PHARMACEUTICALS, INC., priority 2009, dated 2017)

Tests used:
Type in all cases: biochemical
Conditions in all cases: procedures of Example 14 (TR-FRET)
JNK2 = JNK2 (Homo sapiens (Human), UniProt P45984); test: JNK2 TR-FRET kinase assay (Example 14)
Method: (§1) 14.3. Active JNK 1, 2 and 3 TR-FRET Assay
(§2) (1) Assay buffer #1 with 0.0025% Tween and 1 mM DTT was prepared using JNK buffer stock solution.
(§3) (2) Assay buffer #2 with 0.025% BSA was prepared using the assay buffer #1.
(§4) (3) Test compound solution preparation: 5× compound solution was prepared using assay buffer #1 with 5% DMSO. The compound solution (10 μl/well) was added to a 384-well plate (Corning, Cat No. 3654).
(§5) (4) aJNK1, 2 or 3 preparation: aJNK stock (100 μg/ml) at −80° C. was thawed on ice and an aJNK (1.6 ng/ml) solution was prepared using assay buffer #2. The aJNK solution (20 μl/well) was added to the plate and the plate was shaken. The enzyme was incubated with the compound at RT for 10 min. (5) ATP/substrate solution preparation: ATP and substrate stocks were thawed on ice. 2.5×ATP/substrate (e.g., 25 μM or 2.5 mM ATP/50 nM EPIW-1) was prepared using assay buffer #1. The ATP/substrate (20 μl/well) was added to the plate and the plate was shaken. The plate was incubated at RT for 15 min. Note: In an exemplary assay, the final ATP concentration was about 1 mM. (6) EDTA preparation: 30 mM EDTA was prepared using 0.5M EDTA stock and assay buffer #1. The EDTA (10 μl/well) was added to the plate to quench the enzyme reaction and the plate was shaken well. (7) Detection reagent preparation: Eu-63 and SA-XL stocks were thawed on ice. 4× Eu-63/SA-XL (2 nM Eu-63/9.4 nM SA-XL) was prepared using JNK detection buffer. The Eu-63/SA-XL solution (20 μl/well) was added to the plate and the plate was shaken. The plate was incubated at RT for 1 hr before reading the plate on LJL using ratiometric method named HTRF.
(§6) 14.4. Coupled JNK 1, 2 and 3 TR-FRET Assay
(§7) (1) Assay buffer with 0.0025% Tween, 0.01% BSA, and 1 mM DTT was prepared using JNK buffer stock solution.
(§8) (2) Test compound solution preparation: 5× compound solution, including EDTA background, was prepared using assay buffer with 5% DMSO. The compound solution (10 μl/well) was added to a 384-well plate (Corning, Cat No. 3654).
(§9) (3) uJNK1,2, or 3 activation reaction preparation: uJNK activation solution was prepared using assay buffer (1.6 ng/ml MKK4, 1.6 ng/ml MKK7, 16 ng/ml uJNK, and 20 uM ATP final). The uJNK activation solution (35 μl/well) was added to the plate, the plate was shaken, and the reaction mixture was incubated with compound at 30° C. for 60 min. (4) c-Jun substrate solution preparation: 50 nM EPIW-1, c-Jun peptide, was prepared using assay buffer (15 nM final). The EPIW-1 solution (15 μl/well) was added to the plate, the plate was shaken and incubated at 30° C. for 60 min. (5) EDTA preparation: 30 mM EDTA was prepared using 0.5M EDTA stock and assay buffer. The EDTA (10 μl/well) was added to the plate to quench the enzyme reaction and the plate was shaken well. (6) Detection reagent preparation: Eu-73 and SA-XL stocks were thawed on ice. 4× Eu-73/SA-XL (2 nM Eu-73/9.4 nM SA-XL) were prepared using JNK detection buffer. The Eu-73/SA-XL solution (20 μl/well) was added to the plate. The plate was shaken and incubated at RT for 1 hr before reading the plate on LJL using ratiometric method named HTRF.

JNK1 = JNK1 (Homo sapiens (Human), UniProt P45983); test: JNK1 TR-FRET kinase assay (Example 14)
Method: as §1, §2, §3, §4, §5, §6, §7, §8, §9

JNK3 = JNK3 (Homo sapiens (Human), UniProt P53779); test: JNK3 TR-FRET kinase assay (Example 14)
Method: as §1, §2, §3, §4, §5, §6, §7, §8, §9

Sequence of JNK1 (P45983 other isoform, or with tags, fused parts or gaps isoform P45983-2, species assumed): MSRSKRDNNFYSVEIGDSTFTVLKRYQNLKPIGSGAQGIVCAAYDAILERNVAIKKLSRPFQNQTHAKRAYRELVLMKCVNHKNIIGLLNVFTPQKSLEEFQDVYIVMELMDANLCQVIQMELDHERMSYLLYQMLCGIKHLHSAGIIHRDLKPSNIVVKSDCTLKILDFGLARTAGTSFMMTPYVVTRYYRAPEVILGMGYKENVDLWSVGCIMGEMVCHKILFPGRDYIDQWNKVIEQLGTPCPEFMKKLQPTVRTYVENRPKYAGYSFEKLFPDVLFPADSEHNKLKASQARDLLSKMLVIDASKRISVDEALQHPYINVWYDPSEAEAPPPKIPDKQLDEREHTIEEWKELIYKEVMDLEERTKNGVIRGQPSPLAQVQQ
Sequence of JNK2 (P45984 whole entry, species assumed): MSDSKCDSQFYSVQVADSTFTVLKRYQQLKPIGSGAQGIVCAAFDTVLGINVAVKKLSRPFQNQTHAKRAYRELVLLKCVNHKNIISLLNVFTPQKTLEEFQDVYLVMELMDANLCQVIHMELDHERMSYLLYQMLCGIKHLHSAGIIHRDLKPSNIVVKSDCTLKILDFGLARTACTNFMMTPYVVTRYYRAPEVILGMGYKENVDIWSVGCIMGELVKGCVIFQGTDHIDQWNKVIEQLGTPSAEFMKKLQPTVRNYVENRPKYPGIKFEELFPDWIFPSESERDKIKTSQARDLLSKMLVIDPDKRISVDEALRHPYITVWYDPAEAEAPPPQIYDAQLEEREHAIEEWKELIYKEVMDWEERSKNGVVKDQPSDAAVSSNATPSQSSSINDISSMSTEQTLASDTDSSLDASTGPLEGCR
Sequence of JNK3 (P53779 whole entry, species assumed): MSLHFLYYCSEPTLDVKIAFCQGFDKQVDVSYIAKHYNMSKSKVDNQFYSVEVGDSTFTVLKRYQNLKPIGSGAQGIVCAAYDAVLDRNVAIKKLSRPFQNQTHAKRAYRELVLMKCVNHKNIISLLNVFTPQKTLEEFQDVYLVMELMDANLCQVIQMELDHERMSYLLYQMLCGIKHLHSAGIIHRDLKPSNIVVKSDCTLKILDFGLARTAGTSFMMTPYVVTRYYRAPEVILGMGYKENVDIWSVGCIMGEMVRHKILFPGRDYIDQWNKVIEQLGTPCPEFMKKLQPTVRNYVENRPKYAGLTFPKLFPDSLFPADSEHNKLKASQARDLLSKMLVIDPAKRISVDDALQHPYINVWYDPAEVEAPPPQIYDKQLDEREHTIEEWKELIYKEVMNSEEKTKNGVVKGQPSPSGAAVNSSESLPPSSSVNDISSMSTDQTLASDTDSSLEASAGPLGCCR

Row | Compound | IC50 (JNK2) | IC50 (JNK1) | IC50 (JNK3)
1 | COc1ccc(CC(=O)Nc2ccsc2-c2nc(C3CC3)n[nH]2)cc1 [N-(2-(3-cyclopropyl-1H-1,2,4-triazol-5-yl)thiophen-3-yl)-2-(4-methoxyphenyl)acetamide] | 100 to 10000 nM | 100 to 10000 nM | 100 to 10000 nM
2 | CCc1n[nH]c(-c2sccc2NC(=O)Cc2ccc(OC)cc2)n1 [N-(2-(3-ethyl-1H-1,2,4-triazol-5-yl)thiophen-3-yl)-2-(4-methoxyphenyl)acetamide] | 100 to 10000 nM | 100 to 10000 nM | 100 to 10000 nM
3 | Cc1n[nH]c(-c2sccc2NC(=O)Cc2cccc3ccccc23)n1 [N-(2-(3-methyl-1H-1,2,4-triazol-5-yl)thiophen-3-yl)-2-(naphthalen-1-yl)acetamide] | 100 to 10000 nM | 100 to 10000 nM | 100 to 10000 nM
4 | COc1ccc(CC(=O)Nc2ccsc2-c2nc(C(C)(C)C)n[nH]2)cc1 [N-(2-(3-tert-butyl-1H-1,2,4-triazol-5-yl)thiophen-3-yl)-2-(4-methoxyphenyl)acetamide] | > 10000 nM | 100 to 10000 nM | 100 to 10000 nM
5 | COc1ccc(CC(=O)Nc2ccsc2-c2nnc(C(C)C)o2)cc1 [N-(2-(5-isopropyl-1,3,4-oxadiazol-2-yl)thiophen-3-yl)-2-(4-methoxyphenyl)acetamide] | > 50000 nM | > 10000 nM | > 10000 nM
6 | Cc1nnc(-c2sccc2NC(=O)Cc2cccc3ccccc23)o1 [N-(2-(5-methyl-1,3,4-oxadiazol-2-yl)thiophen-3-yl)-2-(naphthalen-1-yl)acetamide] | > 10000 nM | 100 to 10000 nM | 100 to 10000 nM
7 | O=C(Cn1c(=O)ccc2cc(F)c(F)cc21)Nc1sccc1-c1ncon1 [N-(3-(1,2,4-oxadiazol-3-yl)thiophen-2-yl)-2-(6,7-difluoro-2-oxoquinolin-1(2H)-yl)acetamide] | 100 to 10000 nM | < 100 nM | 100 to 10000 nM
8 | COCn1nnnc1-c1ccsc1NC(=O)Cc1ccc(OC)cc1 [N-(3-(1-(methoxymethyl)-1H-tetrazol-5-yl)thiophen-2-yl)-2-(4-methoxyphenyl)acetamide] | > 50000 nM | 100 to 10000 nM | 100 to 10000 nM
9 | O=C(CN1C(=O)CCc2ccccc21)Nc1sccc1-c1ncn[nH]1 [N-(3-(1H-1,2,4-triazol-5-yl)thiophen-2-yl)-2-(2-oxo-3,4-dihydroquinolin-1(2H)-yl)acetamide] | 100 to 10000 nM | < 100 nM | 100 to 10000 nM
10 | N#Cc1csc(NC(=O)Cn2c(=O)ccc3cc(C(F)(F)F)ccc32)c1-n1nnc2ccccc21 [N-(3-(1H-benzo[d][1,2,3]triazol-1-yl)-4-cyanothiophen-2-yl)-2-(2-oxo-6-(trifluoromethyl)quinolin-1(2H)-yl)acetamide] | 100 to 10000 nM | 100 to 10000 nM | 100 to 10000 nM
11 | COCn1nnc(-c2ccsc2NC(=O)Cc2ccc(OC)cc2)n1 [N-(3-(2-(methoxymethyl)-2H-tetrazol-5-yl)thiophen-2-yl)-2-(4-methoxyphenyl)acetamide] | > 50000 nM | > 50000 nM | > 50000 nM
12 | N#Cc1csc(NC(=O)CN2C(=O)CCc3ncccc32)c1-c1nc2ccccc2s1 [N-(3-(benzo[d]thiazol-2-yl)-4-cyanothiophen-2-yl)-2-(2-oxo-3,4-dihydro-1,5-naphthyridin-1(2H)-yl)acetamide] | 100 to 10000 nM | 100 to 10000 nM | 100 to 10000 nM
13 | Cc1csc(NC(=O)Cc2cccc3cnccc23)c1-c1nc2ccccc2s1 [N-(3-(benzo[d]thiazol-2-yl)-4-methylthiophen-2-yl)-2-(isoquinolin-5-yl)acetamide] | > 10000 nM | 100 to 10000 nM | 100 to 10000 nM
14 | O=C(Cc1cccc2cnccc12)Nc1scnc1-c1cscn1 [N-(4,4′-bithiazol-5-yl)-2-(isoquinolin-5-yl)acetamide] | 100 to 10000 nM | < 100 nM | < 100 nM
15 | O=C(Cc1cccc2cnccc12)Nc1scnc1-c1ncn[nH]1 [N-(4-(1H-1,2,4-triazol-5-yl)thiazol-5-yl)-2-(isoquinolin-5-yl)acetamide] | 100 to 10000 nM | 100 to 10000 nM | 100 to 10000 nM
16 | Cn1cnc(-c2c(Br)csc2NC(=O)CN2C(=O)CCc3ncccc32)n1 [N-(4-bromo-3-(1-methyl-1H-1,2,4-triazol-3-yl)thiophen-2-yl)-2-(2-oxo-3,4-dihydro-1,5-naphthyridin-1(2H)-yl)acetamide] | < 100 nM | < 100 nM | < 100 nM
17 | O=C(Cc1ccc2ccc(C(F)(F)F)nc2c1)Nc1scc(Br)c1-c1nc[nH]n1 [N-(4-bromo-3-(1H-1,2,4-triazol-3-yl)thiophen-2-yl)-2-(2-(trifluoromethyl)quinolin-7-yl)acetamide] | 100 to 10000 nM | 100 to 10000 nM | 100 to 10000 nM
18 | O=C(Cc1cccc2ncc(C(F)(F)F)cc12)Nc1scc(Br)c1-c1nc[nH]n1 [N-(4-bromo-3-(1H-1,2,4-triazol-3-yl)thiophen-2-yl)-2-(3-(trifluoromethyl)quinolin-5-yl)acetamide] | 100 to 10000 nM | < 100 nM | < 100 nM
19 | O=C(Cc1cccc2cc(C(F)(F)F)cnc12)Nc1scc(Br)c1-c1nc[nH]n1 [N-(4-bromo-3-(1H-1,2,4-triazol-3-yl)thiophen-2-yl)-2-(3-(trifluoromethyl)quinolin-8-yl)acetamide] | 100 to 10000 nM | 100 to 10000 nM | 100 to 10000 nM
20 | O=C(Cc1cccc2ncc(F)cc12)Nc1scc(Br)c1-c1nc[nH]n1 [N-(4-bromo-3-(1H-1,2,4-triazol-3-yl)thiophen-2-yl)-2-(3-fluoroquinolin-5-yl)acetamide] | < 100 nM | < 100 nM | < 100 nM
21 | O=C(Cc1cccc2cc(F)cnc12)Nc1scc(Br)c1-c1nc[nH]n1 [N-(4-bromo-3-(1H-1,2,4-triazol-3-yl)thiophen-2-yl)-2-(3-fluoroquinolin-8-yl)acetamide] | 100 to 10000 nM | < 100 nM | 100 to 10000 nM
22 | O=C(Cn1c(=O)ccc2ncccc21)Nc1scc(Br)c1-c1ncn[nH]1 [N-(4-bromo-3-(1H-1,2,4-triazol-5-yl)thiophen-2-yl)-2-(2-oxo-1,5-naphthyridin-1(2H)-yl)acetamide] | < 100 nM | < 100 nM | < 100 nM
23 | O=C(Cn1c(=O)ccc2cnccc21)Nc1scc(Br)c1-c1ncn[nH]1 [N-(4-bromo-3-(1H-1,2,4-triazol-5-yl)thiophen-2-yl)-2-(2-oxo-1,6-naphthyridin-1(2H)-yl)acetamide] | < 100 nM | < 100 nM | < 100 nM
24 | O=C(CN1C(=O)CCc2ncccc21)Nc1scc(Br)c1-c1ncn[nH]1 [N-(4-bromo-3-(1H-1,2,4-triazol-5-yl)thiophen-2-yl)-2-(2-oxo-3,4-dihydro-1,5-naphthyridin-1(2H)-yl)acetamide] | < 100 nM | < 100 nM | < 100 nM
25 | O=C(CN1C(=O)CCc2cnccc21)Nc1scc(Br)c1-c1ncn[nH]1 [N-(4-bromo-3-(1H-1,2,4-triazol-5-yl)thiophen-2-yl)-2-(2-oxo-3,4-dihydro-1,6-naphthyridin-1(2H)-yl)acetamide] | < 100 nM | < 100 nM | < 100 nM
26 | O=C(CN1C(=O)CCc2ccccc21)Nc1scc(Br)c1-c1ncn[nH]1 [N-(4-bromo-3-(1H-1,2,4-triazol-5-yl)thiophen-2-yl)-2-(2-oxo-3,4-dihydroquinolin-1(2H)-yl)acetamide] | < 100 nM | < 100 nM | < 100 nM
27 | O=C(Cn1c(=O)ccc2c(C(F)(F)F)cccc21)Nc1scc(Br)c1-c1ncn[nH]1 [N-(4-bromo-3-(1H-1,2,4-triazol-5-yl)thiophen-2-yl)-2-(2-oxo-5-(trifluoromethyl)quinolin-1(2H)-yl)acetamide] | 100 to 10000 nM | < 100 nM | < 100 nM
